# Results published in PubChem BioAssay (NCI).
# Several values for one entry are separate records, joined by “and”; a condition that tells them apart may be missing. Equal entries are not always repeated.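 Exposure lasted 48 hours, with cells grown in 96-well plates and compounds tested at five concentrations. The concentration for 50% growth inhibition is given as GI50. The concentration for full growth arrest is given as TGI.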
# What was measured:
# Test in all cases: DTP human tumour cell line panel, 48 h
# 786-0 renal = system: 786-0 renal
# HL-60(TB) leukemia = system: HL-60(TB) leukemia
# HS 578T breast = system: HS 578T breast
# MDA-MB-231 breast = system: MDA-MB-231 breast
# MDA-MB-435 = system: MDA-MB-435
# OVCAR-8 ovarian = system: OVCAR-8 ovarian
# SF-295 CNS = system: SF-295 CNS
# UACC-257 melanoma = system: UACC-257 melanoma
# RXF 393 renal = system: RXF 393 renal
# SK-MEL-28 melanoma = system: SK-MEL-28 melanoma
SMILES,GI50 (786-0 renal),TGI (786-0 renal),GI50 (HL-60(TB) leukemia),TGI (HL-60(TB) leukemia),GI50 (HS 578T breast),TGI (HS 578T breast),GI50 (MDA-MB-231 breast),TGI (MDA-MB-231 breast),GI50 (MDA-MB-435),TGI (MDA-MB-435),GI50 (OVCAR-8 ovarian),TGI (OVCAR-8 ovarian),GI50 (SF-295 CNS),TGI (SF-295 CNS),GI50 (UACC-257 melanoma),TGI (UACC-257 melanoma),GI50 (RXF 393 renal),TGI (RXF 393 renal),GI50 (SK-MEL-28 melanoma),TGI (SK-MEL-28 melanoma)
O=C(Oc1ccc(Cl)cc1Cl)c1ccccc1Nc1ccnc(C(F)(F)F)c1,1.93 µM,5.87 µM,6.63 µM,> 100 µM,24.9 µM,73.9 µM,2.24 µM,7.92 µM,2.91 µM,8.1 µM,4.79 µM,30.8 µM,15.6 µM,37.2 µM,10.6 µM,26 µM,–,–,–,–
COc1nc(N(C)O)nc(N(C)O)n1,3.74 µM,33.2 µM,1.68 µM,9.1 µM,–,–,3.54 µM,> 100 µM,3.76 µM,> 100 µM,2.48 µM,> 100 µM,2.2 µM,9.69 µM,3.52 µM,> 100 µM,1.95 µM,> 100 µM,2.41 µM,> 100 µM
Cc1nc2c(nc1C)C(=O)c1cc(O)ccc1C2=O,–,> 100 µM,–,> 67.3 µM,–,–,–,–,–,–,–,> 100 µM,–,> 100 µM,–,> 78 µM,–,> 100 µM,–,> 100 µM
Cc1ccc(-[n+]2c3cc(N)c(C)cc3nc3cc(C)c(Nc4ccccc4)cc32)cc1,0.2 µM,0.644 µM,0.102 µM,0.482 µM,0.0734 µM,0.415 µM,–,–,0.0814 µM,0.358 µM,0.103 µM,> 100 µM,0.0646 µM,0.181 µM,0.242 µM,0.952 µM,–,–,0.266 µM,1.33 µM
N#CCC1COc2ccccc2O1 (stereo not drawn),–,> 10 µM,–,> 10 µM,–,> 10 µM,–,> 10 µM,–,> 10 µM,–,> 10 µM,–,> 10 µM,–,> 10 µM,–,–,–,> 10 µM
O=C(CNc1nncs1)NO,–,> 100 µM,–,> 100 µM,–,–,–,–,–,–,–,> 100 µM,–,> 100 µM,–,> 100 µM,–,> 100 µM,–,> 100 µM
CCOc1ccccc1NC(=O)C(=O)CC(=O)c1c(C)n([O-])c2ccccc2[n+]1=O,–,> 100 µM,–,> 100 µM,–,–,–,–,–,–,–,> 100 µM,–,> 100 µM,–,> 100 µM,–,> 100 µM,–,> 100 µM
Cn1c2c(c3ccccc31)CCN(CCCCN1CCc3c(n(C)c4ccccc34)C1=O)C2,–,> 100 µM,–,> 100 µM,–,–,–,–,–,–,–,> 100 µM,–,> 100 µM,–,> 100 µM,–,> 100 µM,–,> 100 µM
Cc1cnc2c(C)ccc([N+](=O)[O-])c2c1NCCCN(C)C,–,> 100 µM,–,> 100 µM,–,–,–,–,–,–,–,> 100 µM,–,> 100 µM,–,> 100 µM,–,–,–,> 100 µM
COc1cc(OC)c([C@@H]2OC(=O)C3C2C(=O)O[C@H]3c2cc(OC)c(OC)cc2OC)cc1OC (stereo partly drawn),–,> 100 µM,–,> 100 µM,–,–,–,–,–,–,–,> 100 µM,–,> 100 µM,–,> 100 µM,–,> 100 µM,–,> 100 µM
Cc1cc(C)nc(NS(=O)(=O)c2ccc(Nc3c4ccccc4nc4c(C(=O)Nc5ccc(S(=O)(=O)N=C(N)N)cc5)ccc(Cl)c34)cc2)n1,–,> 100 µM,–,54 µM,–,–,–,–,–,–,–,33.4 µM,–,> 100 µM,–,> 100 µM,–,38.6 µM,–,–
C[C@@H]1C[C@@H](O)[C@]2(O)O[C@@H]3C[C@@]4(C=O)[C@@H](CC[C@@H]5[C@@H]4CC[C@]4(C)[C@@H](C6=CC(=O)OC6)CC[C@]54O)C[C@H]3O[C@@H]2O1,0.0212 µM and 0.005 µM,0.0124 µM and 0.0611 µM and 0.0222 µM,0.015 µM and 0.00692 µM,0.0285 µM and 0.0322 µM and 0.0169 µM,–,–,–,0.236 µM,–,0.157 µM,0.0393 µM and 0.0143 µM,0.057 µM and 0.13 µM and 0.116 µM,0.0365 µM and 0.00869 µM,0.0616 µM and 0.189 µM and 0.139 µM,0.0711 µM and 0.0291 µM,0.118 µM and 0.266 µM and 0.122 µM,–,0.0599 µM,0.167 µM and 0.0409 µM,0.143 µM and 0.683 µM and 0.354 µM
CC1OC(OCC2OC(Oc3c(-c4ccc(O)cc4)oc4cc(O)cc(O)c4c3=O)C(OC3OCC(O)(CO)C3O)C(O)C2O)C(O)C(O)C1O (stereo not drawn),–,> 100 µM,–,38.7 µM,–,–,–,–,–,–,–,> 100 µM,–,> 100 µM,–,> 100 µM,–,–,–,> 100 µM
Nc1ccn(CCOC(=O)c2ccccc2)c(=O)n1,–,> 100 µM,–,> 100 µM,–,–,–,–,–,–,–,> 100 µM,–,> 100 µM,–,> 100 µM,–,> 100 µM,–,> 100 µM
COc1ccc2nc(N/N=C(\C)c3ccccn3)cc(C)c2c1,0.284 µM,1.21 µM,0.384 µM,7.01 µM,1.76 µM,9.39 µM,0.232 µM,1.87 µM,0.408 µM,1.69 µM,0.286 µM,2.53 µM,0.0487 µM,0.391 µM,0.276 µM,1.09 µM,–,–,0.445 µM,1.68 µM
COc1ccc(N=C2CSc3nnc(-c4cc(F)c(Cl)cc4Cl)n3N2)cc1,1.04 µM,4 µM,0.331 µM,0.636 µM,1.5 µM,9 µM,1.41 µM,12.8 µM,0.208 µM,0.785 µM,2.33 µM,10.7 µM,0.347 µM,2.08 µM,1.38 µM,4.16 µM,–,–,2.38 µM,21.4 µM
COc1cc(CCc2ccc(OCCN(C)C)cc2)cc(OC)c1OC,–,> 100 µM,–,> 100 µM,–,–,–,–,–,–,–,> 100 µM,–,> 100 µM,–,> 100 µM,–,> 100 µM,–,> 100 µM
O=[N+]([O-])c1ccc(C(c2c[nH]c3ccccc23)c2c[nH]c3ccccc23)cc1,–,35.2 µM,–,49 µM,–,51.1 µM,–,29.3 µM,–,32.3 µM,–,33.2 µM,–,> 100 µM,–,9.79 µM,–,–,–,36.1 µM
O=C(O)c1c(-c2cccc3ccccc23)sc(-c2cccc3ccccc23)c1C(=O)O,–,> 100 µM,–,> 100 µM,–,–,–,–,–,–,–,> 100 µM,–,> 100 µM,–,> 100 µM,–,> 100 µM,–,> 100 µM
